PMC9409043, “Serotonin 5-HT6 Receptor Ligands and Butyrylcholinesterase Inhibitors Displaying Antioxidant Activity—Design, Synthesis and Biological Evaluation of Multifunctional Agents against Alzheimer’s Disease” (International Journal of Molecular Sciences, 2022)
Where “and” joins values, the source holds several entries; their conditions need not be identical. Identical values can stand only once.

Tests used:
[1] = target: T1, human 5-HT6 receptor (Homo sapiens, UniProt P50406); test: 5-HT6 receptor radioligand binding assay ([3H]-LSD, CHO-K1 membranes)
T1 construct: purchased PerkinElmer; host or cells: CHO-K1 cells, stably transfected (membrane preparation)
T1 sequence (P50406 whole entry): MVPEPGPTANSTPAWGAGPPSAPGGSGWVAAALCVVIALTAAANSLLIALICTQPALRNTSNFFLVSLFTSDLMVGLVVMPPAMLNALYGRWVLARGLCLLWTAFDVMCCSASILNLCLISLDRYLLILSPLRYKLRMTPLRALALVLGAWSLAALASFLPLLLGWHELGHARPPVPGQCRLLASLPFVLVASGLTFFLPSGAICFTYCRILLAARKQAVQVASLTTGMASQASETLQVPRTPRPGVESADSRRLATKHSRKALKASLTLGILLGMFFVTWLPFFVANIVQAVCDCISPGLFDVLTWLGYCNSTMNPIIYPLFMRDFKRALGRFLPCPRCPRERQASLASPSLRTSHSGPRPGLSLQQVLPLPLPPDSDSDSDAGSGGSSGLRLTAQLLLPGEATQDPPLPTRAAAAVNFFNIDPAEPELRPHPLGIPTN
Method: 5-HT6R binding affinity and cholinesterase (AChE/BuChE) inhibitory activity. We evaluated the pharmacological properties of the final compounds 12–19 in vitro according to the previously described, well-established protocols. Their affinities for recombinant human 5-HT6 receptors (h5-HT6R) were tested in a radioligand binding assay and the inhibitory potencies against human recombinant AChE (hAChE) and BuChE isolated from human plasma (hBuChE) in the spectrophotometric Ellman’s assay. […].
We prepared 10 mM of stock solutions of tested compounds in DMSO. Serial dilutions of compounds were prepared in a 96-well microplate in assay buffers using the automated pipetting system epMotion 5070 (Eppendorf). Each compound was tested in 8 concentrations from 10^−5 to 10^−12 M (final concentration).
The radioligand binding assay was performed using membranes from CHO-K1 cells stably transfected with the human 5-HT6 receptor (PerkinElmer) according to the previously described procedure. All assays were carried out in duplicates. We prepared 50 µL working solution of the tested compounds, 50 µL [^3H]-LSD (final concentration 2.5 nM) and 150 µL diluted membranes (15 µg protein per well) in assay buffer (50 mM Tris, pH 7.4, 10 mM MgCl2, 0.1 mM EDTA) and transferred them to polypropylene 96-well microplates using a 96-well pipetting station Rainin Liquidator (MettlerToledo). Methiothepin (10 μM) was used to define nonspecific binding. The microplate was covered with sealing tape, mixed and incubated for 60 min at 27 °C. The reaction was terminated by rapid filtration through GF/B filter mate presoaked with 0.5% polyethyleneimine for 30 min. Ten rapid washes with 200 µL 50 mM Tris buffer (4 °C, pH 7.4) were performed using the automated harvester system Harvester-96 MACH III FM (Tomtec). The filter mates were dried at 37 °C in a forced air fan incubator and then solid scintillator MeltiLex was melted on filter mates at 90 °C for 5 min. Radioactivity was counted in MicroBeta2 scintillation counter (PerkinElmer). Data were fitted to a one-site curve-fitting equation with Prism 6 (GraphPad Software) and Ki values were estimated from the Cheng−Prusoff equation.

[2] = target: T2, human recombinant AChE (hAChE) (Homo sapiens, UniProt P22303); test: biochemical; settings: mean ± SEM of at least three experiments
T2 construct: purchased Sigma-Aldrich (Steinheim, Germany)
T2 sequence (P22303 32-614): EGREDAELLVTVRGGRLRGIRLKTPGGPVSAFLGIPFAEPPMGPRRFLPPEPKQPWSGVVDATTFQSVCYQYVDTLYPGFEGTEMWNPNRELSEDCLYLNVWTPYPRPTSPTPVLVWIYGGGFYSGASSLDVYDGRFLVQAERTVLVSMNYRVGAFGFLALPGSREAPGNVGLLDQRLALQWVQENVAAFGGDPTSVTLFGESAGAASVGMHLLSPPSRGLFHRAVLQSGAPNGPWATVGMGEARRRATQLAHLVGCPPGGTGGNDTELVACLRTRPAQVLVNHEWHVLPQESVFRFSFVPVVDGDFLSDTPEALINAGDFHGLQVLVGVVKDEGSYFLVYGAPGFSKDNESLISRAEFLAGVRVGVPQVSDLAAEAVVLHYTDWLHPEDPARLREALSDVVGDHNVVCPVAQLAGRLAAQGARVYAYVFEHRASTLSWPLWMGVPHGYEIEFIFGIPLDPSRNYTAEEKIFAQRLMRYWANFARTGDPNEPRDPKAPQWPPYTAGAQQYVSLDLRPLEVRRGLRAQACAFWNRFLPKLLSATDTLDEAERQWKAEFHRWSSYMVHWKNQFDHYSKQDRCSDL
Method: (§1) 5-HT6R binding affinity and cholinesterase (AChE/BuChE) inhibitory activity. […] Their affinities for recombinant human 5-HT6 receptors (h5-HT6R) were tested in a radioligand binding assay and the inhibitory potencies against human recombinant AChE (hAChE) and BuChE isolated from human plasma (hBuChE) in the spectrophotometric Ellman’s assay.
(§2) The assay was based on spectrophotometric Ellman’s method and was performed in 96-well microplates with the reagents purchased from Sigma-Aldrich (Steinheim, Germany) according to the previously described procedure. hBuChE was kindly donated by Vivonics (Bedford, MA, USA). […] After 5 minutes of the enzymatic reaction, the changes in absorbance were measured at 412 nm, using a microplate reader (SPECTROstar Nano; BMG Labtech, Ortenberg, Germany). First, compounds were tested at the screening concentration of 10 µM. Based on the equation 100 − (S/B) × 100 (where S and B were the respective enzyme activities with and without the test sample, respectively) the percentage inhibition of each enzyme for each compound was calculated. […] The IC50 values were calculated using nonlinear regression (GraphPad Prism 5; GraphPad Software, San Diego, CA, USA) by plotting the residual enzyme activities against the applied inhibitor concentration. […] All experiments were performed in triplicate.

[3] = target: T3, BuChE isolated from human plasma (hBuChE) (Homo sapiens, UniProt P06276); test: biochemical; type: biochemical; settings: for IC50: mean ± SEM of at least three experiments
T3 construct: BuChE isolated from human plasma (hBuChE); tissue Vivonics (Bedford, MA, USA), donated; host or cells: human plasma
T3 sequence (P06276 29-602): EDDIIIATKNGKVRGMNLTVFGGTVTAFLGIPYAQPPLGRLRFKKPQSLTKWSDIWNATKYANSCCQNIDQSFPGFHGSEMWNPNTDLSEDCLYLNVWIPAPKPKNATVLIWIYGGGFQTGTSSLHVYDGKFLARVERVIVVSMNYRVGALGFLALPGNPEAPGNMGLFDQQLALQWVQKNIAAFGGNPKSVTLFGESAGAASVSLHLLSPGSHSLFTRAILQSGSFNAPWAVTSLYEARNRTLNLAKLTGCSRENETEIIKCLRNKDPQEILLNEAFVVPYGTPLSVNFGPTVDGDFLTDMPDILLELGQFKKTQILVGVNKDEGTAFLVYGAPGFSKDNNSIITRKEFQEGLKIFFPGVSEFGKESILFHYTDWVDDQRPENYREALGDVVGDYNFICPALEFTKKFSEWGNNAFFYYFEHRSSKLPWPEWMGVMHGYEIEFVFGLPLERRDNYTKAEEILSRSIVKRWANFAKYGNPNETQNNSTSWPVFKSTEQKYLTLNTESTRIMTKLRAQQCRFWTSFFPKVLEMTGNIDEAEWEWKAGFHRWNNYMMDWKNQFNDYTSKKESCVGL
Method: as §1, §2

[4] = ABTS free radical scavenging assay
Text: Antioxidant activity. As mentioned before, oxidative stress is one of the components of AD pathomechanism and is characterised by an imbalance in the production of ROS. One of the mechanisms by which antioxidants reduce the concentration of ROS and therefore prevent or slow the cell damage caused by free radicals is scavenging them. Thus, we tested the scavenging ability of compounds 12–19 in the spectrophotometric ABTS assay that we used before. In this assay, the ability of compounds to scavenge ABTS^• radicals, which are generated from 2,2’-azino-bis(3-ethylbenzothiazoline-6-sulphonic acid) (ABTS), is measured. We tested the compounds at three concentrations: 30, 75 and 150 μM after 5, 30 and 60 min of incubation using Trolox, a water-soluble vitamin E analogue, as a reference (Table S1 in Supporting information).
The spectrophotometric ABTS assay was performed in 96-well microplates with the reagents purchased from Sigma-Aldrich (Steinheim, Germany) according to the previously described procedure. Stock solutions of the tested compounds (6.4 mM) and reagents were prepared in DMSO and water, respectively. 2,2′-Azino-bis(3-ethylbenzothiazoline-6-sulfonic acid) free radical (ABTS^•) was prepared by mixing the stock solution of ABTS (7 mM) and […] (2.45 mM) in ratio 1:1. The mixture was kept in the dark at 4 °C for 16 h. The obtained solution of (ABTS^•) was diluted with water 20 times. Then, the test compound or water or mixture of DMSO/water in the appropriate ratio (0.02 mL) was added to ABTS^• solution (0.18 mL). The three concentrations of the test compounds and Trolox were tested in triplicate: 0.15, 0.075 and 0.03 mM. Changes in absorbance were measured at 734 nm after 5, 30 and 60 min, using a microplate reader (SPECTROstar Nano; BMG Labtech, Ortenberg, Germany). Based on the equation ((A0 − A)/A0) × 100% (where A0 and A were the absorbances without and with the test compound, respectively) the percentage of free radical scavenging activity was calculated. The results are presented as mean ± SD.

Row | SMILES | Ki [1] | IC50 [2] | IC50 [3] | % of ABTS• reduction ± SD ([4]; 30 µM, 5 min) | % of ABTS• reduction ± SD ([4]; 30 µM, 30 min) | % of ABTS• reduction ± SD ([4]; 30 µM, 60 min) | % of ABTS• reduction ± SD ([4]; 75 µM, 5 min) | % of ABTS• reduction ± SD ([4]; 75 µM, 30 min) | % of ABTS• reduction ± SD ([4]; 75 µM, 60 min) | % of ABTS• reduction ± SD ([4]; 150 µM, 5 min) | % of ABTS• reduction ± SD ([4]; 150 µM, 30 min) | % of ABTS• reduction ± SD ([4]; 150 µM, 60 min) | fold higher potency against hBuChE than hAChE ([3]; hAChE IC50 vs. hBuChE IC50)
1 | O=S(=O)(c1ccccc1)N1CCc2c(OCCNCC3CCN(Cc4ccccc4)CC3)cccc21 [Compound 15, N-((1-Benzylpiperidin-4-yl)methyl)-2-((1-(phenylsulfonyl)indolin-4-yl)oxy)ethan-1-amine] | 267 ± 9 nM | 8210 ± 225 nM | 5410 ± 100 nM | 10±0% | 10±1% | 11±0% | 11±1% | 13±1% | 15±1% | 19±1% | 29±1% | 36±4% | 
2 | O=S(=O)(c1ccccc1)n1ccc2c(OCCNCCCC3CCN(Cc4ccccc4)CC3)cccc21 [Compound 14, 3-(1-Benzylpiperidin-4-yl)-N-(2-((1-(phenylsulfonyl)-1H-indol-4-yl)oxy)ethyl)propan-1-amine] | 22 ± 2 nM | 930 ± 35 nM | 16 ± 1 nM | 5±3% | 5±3% | 6±3% | 13±1% | 18±0% | 21±0% | 20±0% | 29±0% | 35±0% and 35% | 60 fold
3 | O=c1[nH]c2c(OCCNCCC3CCN(Cc4ccccc4)CC3)cccc2n1Cc1ccccc1 [Compound 18, 1-Benzyl-4-(2-((2-(1-benzylpiperidin-4-yl)ethyl)amino)ethoxy)-1,3-dihydro-2H-benzo[d]imidazol-2-one] | 142 ± 20 nM | 2860 ± 68 nM | 1160 ± 24 nM | 10±1% | 23±1% | 27±1% | 11±1% | 31±1% | 36±2% | 13±0% | 33±0% | 40±0% | 
